What is called Ki is the dissociation constant of the complex between target and ligand, obtained from inhibition or displacement. The low end stands for higher affinity, the high end for lower affinity.

For the test, the target named is T1, CCK-1 receptor (Homo sapiens, UniProt P32238).
T1 construct: expressed in transfected cells; membranes
T1 sequence (P32238 1-428): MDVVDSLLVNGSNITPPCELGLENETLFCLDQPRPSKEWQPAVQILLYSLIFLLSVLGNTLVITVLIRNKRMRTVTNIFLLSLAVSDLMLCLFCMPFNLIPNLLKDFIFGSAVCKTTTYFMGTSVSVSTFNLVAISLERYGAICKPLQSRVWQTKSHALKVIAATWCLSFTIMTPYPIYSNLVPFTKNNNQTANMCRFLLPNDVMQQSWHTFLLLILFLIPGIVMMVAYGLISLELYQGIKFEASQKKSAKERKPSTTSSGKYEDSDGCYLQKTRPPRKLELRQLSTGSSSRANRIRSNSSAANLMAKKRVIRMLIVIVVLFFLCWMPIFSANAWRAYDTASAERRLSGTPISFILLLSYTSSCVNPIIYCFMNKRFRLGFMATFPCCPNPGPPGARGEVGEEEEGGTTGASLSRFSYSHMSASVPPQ
In words: CCK-1 receptor radioligand binding assay ([125I]-BH-CCK-8S displacement, membranes of stably transfected CHO-K1 cells). Particulars: membranes of CHO-K1 cells stably transfected with CCK-1 receptor, 0.3 μM PD-134,308 present. The procedure: CHO-K1 cells that had undergone-stable transfection with the CCK-1 receptor were grown in DMEM supplemented with L-glutamine (2 mM), penicillin (50 units/mL) and streptomycin (50 μg/mL). Cells were cultured under continuous G418 selection (2 mM) and were harvested using a rubber cell scraper. CHO-K1 cells were sub-cultured a maximum of ten times before being reseeded from the original stocks.
Membranes were prepared from the stably transfected CHO-K1 cells. Frozen cell pellets (−40° C.) were thawed in 14 mL of buffer A (10 mM HEPES, 130 mM NaCl, 4.7 mM KCl, 5 mM MgCl, 1 mM EGTA and 15.4 mg/100 mL bacitracin at pH 7.2), adapted from Harper et al. (Br. J. Pharmacol. (1996) 118, pp 1717-1726). The thawed pellets were homogenized using a Polytron PT-10 (7×1 s). The homogenates were centrifuged for 5 min at 1500 rpm (600×g), and the resulting pellets were discarded. The supernatants were re-centrifuged in order to collect the receptor-membrane pellets (25 min 15,000 rpm; 39,800×g), which were re-suspended in buffer A.
All assays were conducted in 96-well plates (GF/B millipore filter plates) using buffer A, with 0.3 μM PD-134,308, for the dilutions. The CCK-2 receptor ligand was included to eliminate the contribution of this receptor subtype to the binding. For the optimal cell number determination experiments 20 pM [1251]-BH—CCK-8S (50 μL 60 pM solution) was incubated with a range of cell concentrations (2.5×105 to 12.5×10^5 cells/well) in a total volume of 150 μL. Total binding of [1251]-BH—CCK-8S was determined in the presence of 15 μL of buffer A. Non-specific binding of [1 251]-BH—CCK-8S was determined in the presence of 15 μL of 100 μM 2-naphthalenesulphonyl L-aspartyl-(2-phenethyl)amide (2-NAP: see R. A. Hull et al., Br. J. Pharmacol. (1993) 108, pp 734-740), a CCK-1 receptor selective antagonist that is structurally unrelated to the radioligand [1251]-BH—CCK-8S. The assay preparation was incubated for 1 h at 21±3° C., and then the assay was terminated upon rapid filtration of the preparation under reduced pressure. The loaded filters were washed three times using undiluted PBS (100 μL), and then the residues were transferred to 5 mL scintillation tubes. Bound radioactivity was determined using a gamma counter (count time=1 min). From these experiments a cell concentration of 1 pellet in 40 mL of buffer (2.5×10^6 cells/mL) was chosen for use in other assays (below). To validate the radioligand concentration and incubation time for the assay, saturation and kinetic binding studies were also conducted (see M. F. Morton, The Pharmacological Characterization of Cholecystokinin Receptors in the Human Gastrointestinal Tract. PhD Thesis, University of London, 2000). The affinity of novel compounds was estimated by incubating membrane preparations with 15 μL of competing ligand (0.1 pM-1 mM) for 60 min at 21±3° C. The assay was then terminated according to the procedure outlined above.
The pKi values were determined using the equation of Cheng and Prusoff (Biochem. Pharmacol. (1973) 22, pp 3099-3108): [formula]
To circumvent problems associated with computer-assisted data analysis of compounds with low affinity, the data obtained in the current study were weighted according to a method described by Morton (2000). In brief, 100% and 0% specific binding were defined independently using total binding and binding obtained in the presence of a high concentration of the reference antagonist, 2-NAP.

Take `COc1ccc(-n2nc(CC(C(=O)O)c3cccc(Cl)c3)cc2-c2ccc3c(c2)OCO3)cc1` (stereo not drawn) [Example 221]: the Ki is 15.8 nM.

On to `O=C(O)/C(=C\c1cc(-c2ccc(Cl)c(Cl)c2)n(-c2ccccn2)n1)c1cccc(Cl)c1` [Example 110], for which the affinity corresponds to a Ki of 12.6 nM.

Compound `Cc1ccc(-n2nc(-c3cccc(N(C)C)c3)cc2CC(C(=O)O)c2cccc(C)c2)cc1` (stereo not drawn) [Example 90] showed a Ki of 794 nM.

In the case of `Cc1cccc(C(Cc2cc(-c3cccc4ccccc34)nn2-c2ccccn2)C(=O)O)c1` (stereo not drawn) [Example 79], affinity was put at a Ki of 126 nM. Against the preceding compound, the Ki is about 6.3-fold lower.

`COc1ccc(-n2nc(/C=C(/C(=O)O)c3ccc(Cl)c(Cl)c3)cc2-c2ccc(Cl)c(Cl)c2)cc1` [Example 124]: the affinity corresponds to a Ki of 39.8 nM.

`COc1ccc(-n2nc(CC(C(=O)N3CCN(C)CC3)c3cccc(C)c3)cc2-c2ccc(C)cc2)cc1` (stereo not drawn) [Example 68] showed a Ki of 251 nM.

`Cc1cccc(C(Cc2cc(-c3ccc4ccccc4c3)[nH]n2)C(=O)O)c1` (stereo not drawn) [Example 47] showed a Ki of 200 nM.

In the case of `COc1ccc(-n2nc(CC(C(N)=O)c3cccc(C)c3)cc2-c2ccc(C)cc2)cc1` (stereo not drawn) [Example 65], affinity was put at a Ki of 2000 nM.

The compound `Cc1ccc(-n2nc(CC(C(=O)O)c3cccc(C)c3)cc2-c2ccc(N3CCCCC3)cc2)cc1` (stereo not drawn) [Example 349] had a Ki of 79.4 nM.

As to `COc1ccc(-n2nc(CC(C(=O)O)c3cn(C)c4ccccc34)cc2-c2ccc(C)cc2)cc1` (stereo not drawn) [Example 72], the Ki is 50.1 nM. Compared with the last compound, the Ki is about 1.6-fold lower.

Consider `COc1ccc(-n2nc(CC(C(=O)O)c3cccc(Cl)c3)cc2-c2ccc(Oc3ccccc3)cc2)cc1` (stereo not drawn) [Example 246], for which the Ki is 39.8 nM.

`Cc1ccc(-c2cc(CC(C(=O)O)c3ccc4c(c3)OCO4)nn2-c2ccc(Cl)c(Cl)c2)cc1` (stereo not drawn) [Example 189] gave a Ki of 39.8 nM.

As to `Cc1ccc(-n2nc(CC(C(=O)O)c3cccc(C)c3)cc2-c2ccc(N3CCCC3=O)cc2)cc1` (stereo not drawn) [Example 104], the Ki is 39.8 nM.

Take `COc1cccc(C(Cc2cc(-c3ccc(C)cc3)n(-c3ccc(Cl)cc3)n2)C(=O)O)c1` (stereo not drawn) [Example 157]: the Ki was 12.6 nM.

`Cc1ccc(-c2cc(CC(C(=O)O)c3cccc(C)c3)nn2-c2ccc(Cl)cc2)cc1` (stereo not drawn) [Example 155] showed a Ki of 10 nM.

In the case of `Cc1ccc(-n2nc(CC(C(=O)O)c3cccc(C)c3)cc2-c2ccc(N(C)C(C)C)cc2)cc1` (stereo not drawn) [Example 101], affinity was put at a Ki of 15.8 nM.

On to `CCOc1ccc(-n2nc(/C=C(\C(=O)O)c3cccc(Cl)c3)cc2-c2ccc3c(c2)OCO3)cc1` [Example 121], for which the Ki is 7.94 nM.

In turn, `Cc1ccc(-c2cc(CC(C(=O)O)c3ccccc3Cl)nn2Cc2ccccc2)cc1` (stereo not drawn) [Example 43] showed a Ki of 100 nM.

`Cc1cccc(C(Cc2cc(-c3ccc4c(c3)OCO4)n(Cc3ccccc3)n2)C(=O)O)c1` (stereo not drawn) [Example 322] gave a Ki of 39.8 nM.

As to `Cc1cccc(C(Cc2cc(-c3ccc(Cl)c(Cl)c3)n(-c3ccc(C(C)(C)C)cc3)n2)C(=O)O)c1` (stereo not drawn) [Example 275], affinity was put at a Ki of 20 nM.

`COc1ccc(-n2nc(CC(C(=O)O)c3cccc(Cl)c3)cc2-c2ccc(Cl)cc2)cc1` (stereo not drawn) [Example 37]: the Ki is 20 nM.

In turn, `COc1ccc(-n2nc(/C=C(\C(=O)O)c3cccc(Cl)c3)cc2-c2ccc(Cl)c(Cl)c2)cc1` [Example 115] showed a Ki of 6.31 nM.

The compound `Cc1ccc(-c2cc(CC(C(=O)O)c3cccc(SC(F)(F)F)c3)nn2-c2ccc(Cl)c(Cl)c2)cc1` (stereo not drawn) [Example 26] gave a Ki of 79.4 nM.

As for `Cc1cccc(C(Cc2cc(-c3cccnc3)n(-c3ccc(Cl)cc3Cl)n2)C(=O)O)c1` (stereo not drawn) [Example 56], the affinity corresponds to a Ki of 50.1 nM. This Ki lies about 1.6-fold lower than the previous one.

As to `COc1ccc(-n2nc(/C=C(\C(=O)O)c3cccc(C)c3)cc2-c2ccc(Cl)c(Cl)c2)cc1` [Example 120], the inhibition constant Ki was 10 nM.

As to `COc1ccc(-n2nc(CC(C(=O)NC3CCCCC3O)c3cccc(C)c3)cc2-c2ccc(C)cc2)cc1` (stereo not drawn) [Example 64], the affinity corresponds to a Ki of 50.1 nM.

On to `COc1ccc(-n2nc(C[C@H](C(=O)O)c3cccc4ccccc34)cc2-c2ccc3c(c2)OCO3)cc1` [Example 29], for which the affinity corresponds to a Ki of 39.8 nM.

On to `Cc1ccc(-n2nc(CC(C(=O)O)c3cccc(C)c3)cc2-c2ccc3ncccc3c2)cc1` (stereo not drawn) [Example 106], for which the affinity, expressed as Ki, was 63.1 nM. This Ki lies about 1.6-fold higher than the previous one.

Consider `Cc1cccc(C(Cc2cc(-c3ccc(Oc4ccccc4)cc3)[nH]n2)C(=O)O)c1` (stereo not drawn) [Example 305], for which the Ki is 2000 nM.

`COc1ccc(-n2nc(CC(C(=O)O)c3coc4ccccc34)cc2-c2ccc3c(c2)OCO3)cc1` (stereo not drawn) [Example 262] gave a Ki of 12.6 nM.

The compound `Cc1ccc(-c2cc(CC(C(=O)O)c3cccc(I)c3)nn2-c2ccc(Cl)c(Cl)c2)cc1` (stereo not drawn) [Example 24] gave a Ki of 20 nM.

With `O=C(O)/C(=C/c1cc(-c2ccc3c(c2)OCO3)n(-c2cc(Cl)ccc2Cl)n1)c1cccc(Cl)c1` [Example 123], the affinity corresponds to a Ki of 251 nM.

On to `COc1ccc(-n2nc(CC(C(=O)O)c3cccc4ccccc34)cc2-c2ccc(Cl)c(Cl)c2)cc1` (stereo not drawn) [Example 210], for which the affinity corresponds to a Ki of 12.6 nM. This Ki is about 20-fold lower than that of the compound before.

`Cc1ccc(-c2cc(CC(CS(=O)(=O)c3ncn[nH]3)c3cccc(C)c3)nn2-c2ccc(C)cc2)cc1` (stereo not drawn) [Example 137] gave a Ki of 10 nM.

As to `Clc1cccc(C(Cc2cc(-c3ccc4c(c3)OCO4)n(-c3cc(Cl)ccc3Cl)n2)c2nnn[nH]2)c1` (stereo not drawn) [Example 132], the Ki is 10 nM.

`COc1ccc(-n2nc(CC(C(=O)O)c3c[nH]c4ccccc34)cc2-c2ccc(C)cc2)cc1` (stereo not drawn) [Example 71] gave a Ki of 25.1 nM.

`Cc1cccc(C(Cc2cc(-c3ccc(Cl)c(Cl)c3)n(-c3ccc(S(C)(=O)=O)cc3)n2)C(=O)O)c1` (stereo not drawn) [Example 54] showed a Ki of 39.8 nM.

With `COc1ccc(-n2nc(CC(C(=O)O)c3cccnc3)cc2-c2ccc(Cl)cc2)cc1` (stereo not drawn) [Example 208], the Ki was 3160 nM.

In turn, `COc1ccc(-n2nc(C[C@@H](C(=O)O)c3cccc4ccccc34)cc2-c2ccc(C)cc2)cc1` [Example 151] showed a Ki of 200 nM. Compared with the last compound, the Ki is about 16-fold lower.

For the compound `COc1cccc2cc(-c3cc(CC(C(=O)O)c4cccc(C)c4)nn3-c3ccc(C)cc3)oc12` (stereo not drawn) [Example 311], the affinity, expressed as Ki, was 20 nM.

In turn, `Cc1ccc(-c2cc(CC(C(=O)O)c3cccc(Cl)c3)nn2-c2ccc(Cl)c(Cl)c2)cc1` (stereo not drawn) [Example 182] had a Ki of 12.6 nM.

`COc1ccc(-n2nc(CC(C(=O)O)c3cccc(SC(F)(F)F)c3)cc2-c2ccc(Cl)c(Cl)c2)cc1` (stereo not drawn) [Example 334]: the Ki was 100 nM.

As to `Cc1cccc(C(Cc2cc(-c3ccc4ccccc4c3)n(-c3ccccn3)n2)C(=O)O)c1` (stereo not drawn) [Example 52], the Ki is 10 nM.

On to `Cc1ccc(-c2cc(CC(C(=O)O)c3cccc(Cl)c3Cl)nn2-c2ccc(Cl)c(Cl)c2)cc1` (stereo not drawn) [Example 46], for which affinity was put at a Ki of 20 nM.

`O=C(O)/C(=C\c1cc(-c2ccc(Cl)c(Cl)c2)n(-c2cc(Cl)ccc2Cl)n1)c1cccc(Cl)c1` [Example 111] gave a Ki of 3.98 nM.

With `Cc1ccc(-n2nc(CC(C(=O)O)c3cccc(C)c3)cc2-c2ccc3ccccc3c2)cc1` (stereo not drawn) [Example 271], the affinity, expressed as Ki, was 15.8 nM. This Ki lies about 4-fold higher than the previous one.

For the compound `COc1cccc(C(Cc2cc(-c3ccc(C)cc3)n(-c3ccc(C)cc3)n2)C(=O)O)c1` (stereo not drawn) [Example 170], the Ki is 7.94 nM.

Compound `Cc1cccc(C(Cc2cc(-c3ccc4ccccc4c3)n(-c3ccc(C(F)(F)F)cn3)n2)C(=O)O)c1` (stereo not drawn) [Example 80] gave a Ki of 12.6 nM.

Values taken from patent US20050020565A1, “CCK-1 receptor modulators” (priority 2003, published 2005).
